Patent publication US20190015395A1, “TACROLIMUS FOR TREATING TDP-43 PROTEINOPATHY” (CHRONOS THERAPEUTICS LIMITED, priority 2016, published 2019)

What was measured:
[1] = system: TDP-43(Q331K) mice; experiment: Rotarod testing of TDP-43(Q331K) transgenic mice; type: in vivo, mouse
[2] = system: C. elegans expressing GFP-TDP-43(CTF) (C-terminal fragment of human TDP-43, aas 208-414) in the body wall muscle; experiment: C. elegans lifespan assay, strain expressing TDP-43 C-terminal fragment; type: in vivo; settings: 10 μg/ml in the NGM agar, vs DMSO vehicle, p<0.005
From the text: C-terminal fragments of TDP-43 are associated with pathology in ALS and FTD patients. In particular, proteolytic cleavage at Arg208 has been reported to generate a pathogenic C-terminal fragment (see Wang et al., 2013, J. Biol. Chem. 288(13):9049-57 and Igaz et al., 2009, J. Biol. Chem. 284(13):8516-24; the disclosures of which are incorporated herein by reference). Therefore, a transgenic C. elegans strain was generated that expresses the C-terminal fragment (CTF) of human TDP-43 (aas 208-414) in the body wall muscle, fused via a short linker region to the C-terminus of a GFP tag. Expression is under the control of the myo-3 promoter. […]
(§1) C. elegans cultures were synchronised by incubating an asynchronous culture in basic sodium hypochlorite solution to kill everything but the bleach-resistant mature eggs. […] From this point on, each ageing population was inspected daily and viability assessed by counting the number of dead worms.
(§2) The cumulative number of dead worms for each population was used to generate a survival/viability plot to determine chronological lifespan (CLS). Survival was analysed using the Kaplan-Meier log-rank survival analysis method, using the Online Application for Survival (OASIS; see http://sbi.postech.ac.kr/oasis). […]

[3] = system: control (GFP-expressing) C. elegans; experiment: C. elegans lifespan assay, control strain expressing GFP only; type: in vivo; settings: 10 μg/ml in the NGM agar, vs DMSO vehicle, p<0.01
Method: A control C. elegans strain was generated in the same background, in which the GFP reporter only is expressed under the control of the myo-3 promoter.
These strains were crossed with worms carrying a mutation in the bus-5 gene, which confers drug-sensitivity, to produce drug-sensitive strains expressing GFP alone (“GFP”) or expressing the GFP-TDP-43 CTF fusion protein (“GFP-TDP-43(CTF)”).
as §1, with “eggs. Approximately 300 eggs were added on to agar plates and then allowed to hatch and develop (to produce approximately 200 worms) in the presence of the test compound (or vehicle) and bacterial food source.” for “eggs.”
as §2

[4] = system: TNF-α; experiment: Blood TNF-α levels in healthy human volunteers; type: in vivo
Method: (§3) A hard gelatine capsule was filled with the following composition:
(§4) One capsule as above containing 0.3 mg tacrolimus was administered daily to healthy human volunteers for three successive days. […] Similarly, no change in TNF-α levels occurred as a result of administering 0.6 mg daily of tacrolimus to healthy volunteers. The average trough level of tacrolimus (level after 24 hours of administration of each dose) observed was approximately 220 pg/mL.

[5] = Tacrolimus blood levels in healthy human volunteers after capsule; type: in vivo
Method: as §3, §4

[6] = in vivo, 2 mg/kg/day
Method: Based on pharmacokinetic analysis, a tacrolimus dose of 2 mg/kg/day in the mouse is believed to correspond to a human oral dose of about 0.33-0.44 mg/day oral for a 70 kg person.

Row | Compound | rotarod latency / decline in motor function ([1]; 10 mg/kg p.o. per day in water, up to 60 weeks, vs water-treated control) | lifespan (survival) of worms expressing the TDP-43 C-terminal fragment [2] | lifespan (survival) of worms expressing the TDP-43 C-terminal fragment ([2]; listed as Tacrolimus) | lifespan (survival) of control GFP-expressing worms [3] | lifespan (survival) of control GFP-expressing worms ([3]; listed as Tacrolimus) | rotarod latency / decline in motor function ([1]; 0.25 mg/kg per day p.o., 60 weeks from 3 weeks of age, vs vehicle) | rotarod latency / decline in motor function ([1]; 0.25 mg/kg per day p.o., 60 weeks from 3 weeks of age, vs vehicle, listed as Tacrolimus) | rotarod latency / decline in motor function ([1]; 1.25 mg/kg per day p.o., 60 weeks from 3 weeks of age, vs vehicle) | rotarod latency / decline in motor function ([1]; 1.25 mg/kg per day p.o., 60 weeks from 3 weeks of age, vs vehicle, listed as Tacrolimus) | rotarod latency / decline in motor function ([1]; 2.5 mg/kg per day p.o., 60 weeks from 3 weeks of age, vs vehicle) | rotarod latency / decline in motor function ([1]; 2.5 mg/kg per day p.o., 60 weeks from 3 weeks of age, vs vehicle, listed as Tacrolimus) | change in blood TNF-α levels ([4]; 0.3 mg capsule daily for three successive days) | change in TNF-α levels ([4]; 0.6 mg daily) | average peak level ([5]; 0.3 mg capsule daily for three days, healthy volunteers) | expected trough level ([5]; two capsules simultaneously, single dose of 0.6 mg) | human oral dose corresponding to the mouse dose [6] [mg/day]
1 | Nc1nc2ccc(OC(F)(F)F)cc2s1 [riluzole] | delays the progression of the decline in rotarod performance | – | – | – | – | – | – | – | – | – | – | – | – | – | – | –
2 | C=CC[C@@H]1/C=C(\C)C[C@H](C)C[C@H](OC)[C@H]2O[C@@](O)(C(=O)C(=O)N3CCCC[C@H]3C(=O)O[C@H](/C(C)=C/[C@@H]3CC[C@@H](O)[C@H](OC)C3)[C@H](C)[C@@H](O)CC1=O)[C@H](C)C[C@@H]2OC [tacrolimus] | – | partially rescuing the lifespan deficit | significant increase in lifespan | increasing the lifespan | significant increase in lifespan | delays the progression of motor decline | delays the progression of the decline in rotarod performance | delays the progression of motor decline | delays the progression of the decline in rotarod performance | delays the progression of motor decline | delays the progression of the decline in rotarod performance | No significant changes | no change | approximately 3700 pg/mL | about 440 pg/mL | 0.33 to 0.44
